Data taken from patent US7687473B2, “5-amino-4-imidazolecarboxamide riboside and its nucleobase as potentiators of antifolate transport and metabolism” (Health Research, Inc., priority 2005, dated 2010).
Like-named read-outs stand apart in the source and are kept apart here.

Experiments:
CCRF-CEM cells [1] = assay: [3H]MTX uptake (initial velocity and 30 min accumulation) in CCRF-CEM cells; format: cell-based, human; conditions: for Potentiation of [3H]MTX uptake at 30 min: compound at 0.5 mM, 10 min pre-incubation with TMTX
Experimental: Quantitation of folate and antifolate uptake. The method is essentially as follows. Briefly, logarithmically growing (3-5×10^5/ml) CCRF-CEM cells were harvested at room temperature by centrifugation at 1000×g for 5 min. After washing with the appropriate medium, cells were suspended at ≈2×10^7 cells/ml for use in transport studies. […] Anion-free MHS contains 250 mM sucrose and 20 mM HEPES, titrated to pH 7.4 with MgO. […] Uptake was measured as a function of time for 30 min (for rate and extent measurements) or over 5 min (studies requiring initial velocities). […] Uptake was terminated by diluting 100 μL samples into 1 ml of iced 0.9% NaCl. […] The supernatant was aspirated. The cell pellet was washed once with 1 ml iced 0.9% NaCl and centrifuged as above. The washed pellet was solubilized in 1 ml of 0.3% Triton X-100 by incubation for 60 min at 37° C. The solubilized pellet was transferred to a scintillation vial, 10 ml of Liquiscint (National Diagnostics, Atlanta, Ga.) was added and radioactivity was quantitated in a Beckman Model LS6500 liquid scintillation counter. Separate samples at the longest incubation time used in a particular experiment were harvested for HPLC analysis of intracellular contents as above, except that after the second wash the pellets were extracted with 1 ml boiling 0.1 M Na-phosphate, pH 5.5. The extract was clarified by centrifugation and the supernatant was filtered through an MPS-1 filter unit (Amicon) prior to HPLC analysis.

[2] = biological target: T1, reduced folate carrier (RFC) (Homo sapiens, UniProt P41440); assay: Inhibition of initial velocity of [3H]MTX influx by competitors; format: cell-based; conditions: for IC50: IC50, inhibition of initial velocity of [3H]MTX influx
T1 construct: endogenous in cells; host or cells: CCRF-CEM (parental)
T1 sequence (P41440 1-591): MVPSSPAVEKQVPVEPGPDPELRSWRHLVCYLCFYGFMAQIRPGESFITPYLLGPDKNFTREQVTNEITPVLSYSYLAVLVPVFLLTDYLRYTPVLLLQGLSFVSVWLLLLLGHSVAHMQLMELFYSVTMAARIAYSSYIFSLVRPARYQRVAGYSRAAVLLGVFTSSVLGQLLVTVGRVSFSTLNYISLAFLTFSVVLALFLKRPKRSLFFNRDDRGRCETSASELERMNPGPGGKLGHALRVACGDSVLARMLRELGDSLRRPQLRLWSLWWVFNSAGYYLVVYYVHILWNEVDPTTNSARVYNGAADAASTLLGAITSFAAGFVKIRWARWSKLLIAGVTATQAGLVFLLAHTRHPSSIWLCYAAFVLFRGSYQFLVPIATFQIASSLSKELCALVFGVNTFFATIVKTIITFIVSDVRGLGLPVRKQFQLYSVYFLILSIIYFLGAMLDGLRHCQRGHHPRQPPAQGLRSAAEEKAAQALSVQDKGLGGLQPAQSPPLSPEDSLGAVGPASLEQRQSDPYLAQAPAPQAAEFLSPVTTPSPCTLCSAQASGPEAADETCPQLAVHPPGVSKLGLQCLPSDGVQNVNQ
Experimental: Duplicate samples were removed at 5 min and processed as described above.
Inhibition of the vi of uptake was measured after pre-incubation of CCRF-CEM cells either with TMTX alone (measuring inhibition at the RFC) or with TMTX+Z (measuring inhibition during Z potentiation). […] All studies were carried out in standard transport medium. Inhibitory potency was measured in two series of experiments and AMT was included in each series as an internal control. Values are average±range of two determinations. […] Values are average±range for duplicate determinations.

CCRF-CEM cells [3] = assay: cells; format: cell-based, human; conditions: for EC50: Homo sapiens, CCRF-CEM, read-out: EC50
Experimental: Inhibition of growth of human cell lines in vitro. Inhibition of growth of CCRF-CEM in continuous and intermittent drug exposures was measured. EC50 values were determined from plots of percent control growth versus the logarithm of drug concentration.
[…]; n=2). […]; n=2). Values presented are average±S.D. for n>2 and average±range for n=2. […] […]; EC50 data may therefore underestimate the biological potency.

CCRF-CEM cells [4] = assay: Accumulation of DDATHF polyglutamates in CCRF-CEM cells; format: cell-based, human; conditions: for DDATHF-Glun, N = 1 / DDATHF-Glun, N = 2 / DDATHF-Glun, N = 3 / DDATHF-Glun, N = 4 / DDATHF-Glun, N = 5 / DDATHF-Glun, N = 6 / DDATHF-Glun, Total / DDATHF-Glun, Total N ≧ 3: 4 hr, 1 μM [3H]DDATHF
Experimental: At the end of the exposure cells were rapidly chilled to 4 degrees C., harvested by centrifugation at 1000×g for 5 min, washed twice with iced 0.9% NaCl by centrifugation in the same manner. One mL of boiling 50 mM Na-phosphate, pH 5.5 was added, the pellet was triturated and the sample boiled for 5 min. The sample was rapidly cooled to 4 degrees C. Debris was removed by centrifugation as above. The supernatant was further clarified by centrifugation through an Amicon MPS-1 filter unit. […] A suitable volume was injected onto a reversed-phase HPLC column (C18) and eluted with a gradient of from 4-14% acetonitrile over about 43 min. One min fractions were collected and, after addition of 10 ml scintillation fluid, were quantitated by liquid scintillation counting. […]

[5] = +TMTX + Z, 10 min pre-incubation with 1 μM TMTX and 0.5 mM Z (Z potentiated influx)
[6] = +TMTX, 10 min pre-incubation with 1 μM TMTX alone (inhibition of the RFC)
[7] = 1 mM, 30 min incubation, TMTX present, Z absent

NC(=O)c1nc[nH]c1N [Z-base, 5-amino-4-imidazolecarboxamide]
Potentiation of [3H]MTX uptake at 30 min (CCRF-CEM cells [1]): potentiates

NC(=O)NC1NC(=O)NC1=O (centres unmarked) [ALN, allantoin]
Potentiation of [3H]MTX uptake (CCRF-CEM cells [1]; 500 μM): does not potentiate | Inhibition of potentiation by 500 μM Z (CCRF-CEM cells [1]; up to 100 μM): does not inhibit potentiation

Nc1ncnc2nc[nH]c12 [adenine]
Potentiation of [3H]MTX uptake at 30 min (CCRF-CEM cells [1]): do not potentiate

O=c1[nH]cnc2nc[nH]c12 [hypoxanthine]
Potentiation of [3H]MTX uptake at 30 min (CCRF-CEM cells [1]): do not potentiate

Nc1nc2ncc(CNc3ccc(C(=O)N[C@@H](CCC(=O)O)C(=O)O)cc3)nc2c(=O)[nH]1 [PteGlu, folic acid]
IC50 [2, 5]: 18500 ± 1100 nM | IC50 [2, 6]: 18600 ± 600 nM | Plateau in inhibition of [3H]MTX influx ([2]; observed ±Z, data not shown): 60-70%

O=CO [formate]
Ability to potentiate [3H]MTX uptake (CCRF-CEM cells [1]): unable to potentiate

CCCC(=O)Nc1ncnc2c1ncn2[C@@H]1O[C@@H]2COP(=O)(O)O[C@H]2[C@H]1OC(=O)CCC [dibutyryl-cAMP]
30 min accumulation of [3H]MTX compared to TMTX alone (CCRF-CEM cells [1]; [7]): lower 30 min accumulation | Initial velocity of [3H]MTX uptake compared to TMTX alone (CCRF-CEM cells [1]; [7]): reduced initial velocity

CSCC[C@H](N)C(=O)O [methionine]
Ability to potentiate [3H]MTX uptake (CCRF-CEM cells [1]): unable to potentiate

OC[C@H]1O[C@@H](n2cnc3c(O)ncnc32)C[C@@H]1O [deoxyinosine]
Potentiation of [3H]MTX uptake at 30 min (CCRF-CEM cells [1]): do not potentiate

NC(=O)c1[nH]nc([C@@H]2O[C@H](CO)[C@@H](O)[C@H]2O)c1O [pyrazofurin]
Ability to potentiate [3H]MTX uptake (CCRF-CEM cells [1]): unable to potentiate

Cc1cn([C@H]2C[C@H](O)[C@@H](CO)O2)c(=O)[nH]c1=O [thymidine]
Potentiation of [3H]MTX uptake at 30 min (CCRF-CEM cells [1]): do not potentiate

Nc1ncnc2c1ncn2[C@H]1C[C@H](O)[C@@H](CO)O1 [deoxyadenosine]
Potentiation of [3H]MTX uptake at 30 min (CCRF-CEM cells [1]): do not potentiate

Cc1nc2ccc3ccc(CNc4ccc5c(c4)CN([C@@H](CCC(=O)O)C(=O)O)C5=O)cc3c2c(=O)[nH]1 [BW1843U89, (S)-2-(5-(((1,2-dihydro-3-methyl-1-oxobenzo(F)quinazolin-9-yl)methyl)-amino)-1-oxo-2-isoindolinyl)glutaric acid]
IC50 [2, 5]: 1300 ± 400 nM | IC50 [2, 6]: 1000 ± 100 nM

Nc1ncnc2c1ncn2[C@@H]1O[C@H](CO)[C@@H](O)[C@H]1O [Adenosine, adenosine]
Ability to potentiate [3H]MTX uptake (CCRF-CEM cells [1]): unable to potentiate | Potentiation of [3H]MTX uptake at 30 min (CCRF-CEM cells [1]): do not potentiate

Nc1nc2c(c(=O)[nH]1)N(C=O)[C@H](CNc1ccc(C(=O)N[C@@H](CCC(=O)O)C(=O)O)cc1)CN2 [(6R,S)-LV, [6R,S]-5-formyltetrahydrofolate]
IC50 [2, 5]: 2700 nM | IC50 [2, 6]: 2600 ± 100 nM

Nc1nc2c(ncn2[C@@H]2O[C@H](CO)[C@@H](O)[C@H]2O)c(=O)[nH]1 [guanosine]
Ability to potentiate [3H]MTX uptake (CCRF-CEM cells [1]): unable to potentiate | Potentiation of [3H]MTX uptake at 30 min (CCRF-CEM cells [1]): do not potentiate

Nc1nc2nc[nH]c2c(=O)[nH]1 [guanine]
Potentiation of [3H]MTX uptake at 30 min (CCRF-CEM cells [1]): do not potentiate

NC(=O)CC[C@H](N)C(=O)O [glutamine]
Ability to potentiate [3H]MTX uptake (CCRF-CEM cells [1]): unable to potentiate

Nc1nc(N)c2nc(CNc3ccc(C(=O)N[C@@H](CCC(=O)O)C(=O)O)cc3)cnc2n1 [AMT, 4-amino-pteroylglutamic acid]
Increase of growth inhibitory potency (EC50) by Z (CCRF-CEM cells [3]; 0-24 hr pulse of 120 hr, 100 μM Z): ≈ 2 fold | EC50 (CCRF-CEM cells [3]; drug exposure 0-24/120 hr, [Z] 0 μM): 6.1 ± 1.3 nM | EC50 (CCRF-CEM cells [3]; drug exposure 0-24/120 hr, [Z] 100 μM): 3.7 ± 0.3 nM

Nc1nc2c(c(=O)[nH]1)CC(CCc1ccc(C(=O)N[C@@H](CCC(=O)O)C(=O)O)cc1)CN2 (some centres unmarked) [DDATHF, 5,10-dideazatetrahydrofolate]
Effect of Z on DDATHF uptake (CCRF-CEM cells [4]; 30 min incubation): no effect of Z was observed | Increase of total drug accumulation by Z (CCRF-CEM cells [4]; 4 hr incubation with 1 μM [3H]DDATHF): 11% | DDATHF-Glun, N = 1 (CCRF-CEM cells [4]; +Z): 17.5 ± 1.3 pmol/10^7 cells | DDATHF-Glun, N = 2 (CCRF-CEM cells [4]; +Z): 5.9 ± 0.1 pmol/10^7 cells | DDATHF-Glun, N = 3 (CCRF-CEM cells [4]; +Z): 10.1 ± 0.1 pmol/10^7 cells | DDATHF-Glun, N = 4 (CCRF-CEM cells [4]; +Z): 15.2 ± 0.8 pmol/10^7 cells | DDATHF-Glun, N = 5 (CCRF-CEM cells [4]; +Z): 29.8 ± 0.3 pmol/10^7 cells | DDATHF-Glun, N = 6 (CCRF-CEM cells [4]; +Z): 33.0 ± 2.3 pmol/10^7 cells | DDATHF-Glun, Total (CCRF-CEM cells [4]; +Z): 111.3 pmol/10^7 cells | DDATHF-Glun, Total N ≧ 3 (CCRF-CEM cells [4]; +Z): 88.0 pmol/10^7 cells | DDATHF-Glun, N = 1 (CCRF-CEM cells [4]; −Z): 14.8 ± 0.8 pmol/10^7 cells | DDATHF-Glun, N = 2 (CCRF-CEM cells [4]; −Z): 4.9 ± 0.8 pmol/10^7 cells | DDATHF-Glun, N = 3 (CCRF-CEM cells [4]; −Z): 9.2 ± 0.9 pmol/10^7 cells | DDATHF-Glun, N = 4 (CCRF-CEM cells [4]; −Z): 13.3 ± 2.1 pmol/10^7 cells | DDATHF-Glun, N = 5 (CCRF-CEM cells [4]; −Z): 28.1 ± 2.1 pmol/10^7 cells | DDATHF-Glun, N = 6 (CCRF-CEM cells [4]; −Z): 30.5 ± 0.9 pmol/10^7 cells | DDATHF-Glun, Total (CCRF-CEM cells [4]; −Z): 100.8 pmol/10^7 cells | DDATHF-Glun, Total N ≧ 3 (CCRF-CEM cells [4]; −Z): 81.1 pmol/10^7 cells

Nc1nc2[nH]cc(CCc3ccc(C(=O)N[C@@H](CCC(=O)O)C(=O)O)cc3)c2c(=O)[nH]1 [pemetrexed]
EC50 (CCRF-CEM cells [3]; 0-6 hr pulse exposure out of 120 hr, 50 μM Z): 320 ± 30 nM | EC50 (CCRF-CEM cells [3]; 0-6 hr pulse exposure out of 120 hr, absence of Z): 300 ± 10 nM | EC50 (CCRF-CEM cells [3]; 0-16 hr pulse exposure out of 120 hr, 50 μM Z): 102 ± 17.5 nM | EC50 (CCRF-CEM cells [3]; 0-16 hr pulse exposure out of 120 hr, absence of Z): 85.5 ± 6.5 nM | EC50 (CCRF-CEM cells [3]; 120 h, 120 hr continuous exposure, 50 μM Z): 19.8 ± 3.3 nM | EC50 (CCRF-CEM cells [3]; 120 h, 120 hr continuous exposure, absence of Z): 18.3 ± 3.4 nM

Nc1nc2c(ncn2[C@H]2C[C@H](O)[C@@H](CO)O2)c(=O)[nH]1 [deoxyguanosine]
Potentiation of [3H]MTX uptake at 30 min (CCRF-CEM cells [1]): do not potentiate

OC[C@H]1O[C@@H](n2cnc3c(O)ncnc32)[C@H](O)[C@@H]1O [inosine]
Ability to potentiate [3H]MTX uptake (CCRF-CEM cells [1]): unable to potentiate | Potentiation of [3H]MTX uptake at 30 min (CCRF-CEM cells [1]): do not potentiate
